Data reported in ChEMBL document CHEMBL3396968, “Isolation and cytotoxicity evaluation of taxanes from the barks of Taxus wallichiana var. mairei” (Bioorg Med Chem Lett, 2015).

Legend:
A549 = experiment: Antiproliferative activity against human A549 cells assessed as growth inhibition after 48 hrs by sulforhodamine B assay; assay type: functional, cell-based; conditions: A549, 48 h
[1] = Antiproliferative activity against human MCF7/DX cells assessed as growth inhibition after 48 hrs by sulforhodamine B assay; assay type: functional, cell-based
[2] = Antiproliferative activity against human A2780/TAX cells assessed as growth inhibition after 48 hrs by sulforhodamine B assay; assay type: functional, cell-based
[3] = Antiproliferative activity against mouse NIH/3T3 cells assessed as growth inhibition after 48 hrs by sulforhodamine B assay; assay type: cell-based; conditions: NIH3T3, 48 h
MCF7 = experiment: Antiproliferative activity against human MCF7 cells assessed as growth inhibition after 48 hrs by sulforhodamine B assay; assay type: functional, cell-based; conditions: MCF7, 48 h
[4] = Antiproliferative activity against human HCT8/VCT cells assessed as growth inhibition after 48 hrs by sulforhodamine B assay; assay type: functional, cell-based
[5] = Antiproliferative activity against human A549/CDDP cells assessed as growth inhibition after 48 hrs by sulforhodamine B assay; assay type: functional, cell-based; conditions: A549, 48 h
[6] = Antiproliferative activity against human HCT8 cells assessed as growth inhibition after 48 hrs by sulforhodamine B assay; assay type: functional, cell-based; conditions: HCT-8, 48 h
A2780 = experiment: Antiproliferative activity against human A2780 cells assessed as growth inhibition after 48 hrs by sulforhodamine B assay; assay type: functional, cell-based; conditions: A2780, 48 h
SW480 = experiment: Antiproliferative activity against human SW480 cells assessed as growth inhibition after 48 hrs by sulforhodamine B assay; assay type: functional, cell-based; conditions: SW480, 48 h
HepG2 = experiment: Antiproliferative activity against human HepG2 cells assessed as growth inhibition after 48 hrs by sulforhodamine B assay; assay type: functional, cell-based; conditions: HepG2, 48 h

Compound | IC50 (A549) | IC50 [1] | IC50 [2] | IC50 [3] | IC50 (MCF7) | IC50 [4] | IC50 [5] | IC50 [6] | IC50 (A2780) | IC50 (SW480) | IC50 (HepG2)
CC(=O)O[C@H]1C(=O)[C@@]2(C)[C@H]([C@H](OC(=O)c3ccccc3)[C@]3(O)C[C@H](OC(=O)[C@H](O)[C@@H](NC(=O)OC(C)(C)C)c4ccccc4)C(C)=C1C3(C)C)[C@]1(OC(C)=O)CO[C@@H]1C[C@@H]2O | < 0.002 µM | < 0.002 µM | 0.42 µM | < 0.002 µM | < 0.002 µM | 0.89 µM | < 0.002 µM | < 0.002 µM | < 0.002 µM |  | 
CCCCCC(=O)N[C@@H](c1ccccc1)[C@@H](O)C(=O)O[C@H]1C[C@@]2(O)[C@@H](OC(=O)c3ccccc3)[C@@H]3[C@]4(OC(C)=O)CO[C@@H]4C[C@H](O[C@@H]4OC[C@@H](O)[C@H](O)[C@H]4O)[C@@]3(C)C(=O)[C@H](O)C(=C1C)C2(C)C | 19 µM | > 25 µM | > 25 µM | > 25 µM | > 25 µM | > 25 µM | 0.64 µM | 8.5 µM | 1.5 µM | > 25 µM | > 25 µM
C=C1[C@@H](O[C@@H]2O[C@H](CO)[C@@H](O)[C@H](O)[C@H]2O)C[C@H](OC(C)=O)[C@]2(C)[C@@H]1C[C@@H]1C[C@H](O)C(C)=C([C@@H](OC(C)=O)[C@@H]2OC(C)=O)C1(C)C | 2.2 µM | > 25 µM | > 25 µM | > 25 µM | > 25 µM | > 25 µM | > 25 µM | > 25 µM | > 25 µM | 16 µM | 6.1 µM
CC(=O)O[C@@]12CO[C@@H]1C[C@H](O[C@@H]1OC[C@@H](O)[C@H](O)[C@H]1O)[C@@]1(C)C(=O)[C@H](O)C3=C(C)[C@@H](OC(=O)[C@H](O)[C@@H](NC(=O)c4ccccc4)c4ccccc4)C[C@@](O)([C@@H](OC(=O)c4ccccc4)[C@H]21)C3(C)C | 2.1 µM | 1.4 µM | > 25 µM | > 25 µM | 0.8 µM | > 25 µM | 2.5 µM | 0.26 µM | 1.6 µM | 16 µM | 3 µM
C/C=C(\C)C(=O)N[C@@H](c1ccccc1)[C@@H](O)C(=O)O[C@H]1C[C@@]2(O)[C@@H](OC(=O)c3ccccc3)[C@@H]3[C@]4(OC(C)=O)CO[C@@H]4C[C@H](O[C@@H]4OC[C@@H](O)[C@H](O)[C@H]4O)[C@@]3(C)C(=O)[C@H](OC(C)=O)C(=C1C)C2(C)C | 2.2 µM | > 25 µM | 17 µM | > 25 µM | 0.029 µM | > 25 µM | > 25 µM | > 25 µM | > 25 µM | 7.2 µM | 5.8 µM
CC(=O)O[C@H]1C(=O)[C@]2(C)[C@@H](O[C@@H]3OC[C@@H](O)[C@H](O)[C@H]3O)C[C@H]3OC[C@@]3(OC(C)=O)[C@H]2[C@H](OC(=O)c2ccccc2)[C@]2(O)C[C@H](OC(=O)[C@H](O)[C@@H](NC(=O)c3ccccc3)c3ccccc3)C(C)=C1C2(C)C | 0.39 µM | > 25 µM | > 25 µM | > 25 µM | 0.16 µM | > 25 µM | 0.92 µM | 5.9 µM | 0.85 µM | 5.6 µM | 1.2 µM
C/C=C(\C)C(=O)N[C@@H](c1ccccc1)[C@@H](O)C(=O)O[C@H]1C[C@@]2(O)[C@@H](OC(=O)c3ccccc3)[C@@H]3[C@]4(OC(C)=O)CO[C@@H]4C[C@H](O[C@@H]4OC[C@@H](O)[C@H](O)[C@H]4O)[C@@]3(C)C(=O)[C@H](O)C(=C1C)C2(C)C | 1.9 µM | > 25 µM | > 25 µM | > 25 µM | 0.14 µM | > 25 µM | 3.1 µM | > 25 µM | 3.5 µM | 20 µM | 3.9 µM
CC(=O)O[C@@]12CO[C@@H]1C[C@H](O)[C@@]1(C)C(=O)[C@H](O)C3=C(C)[C@@H](O)C[C@@](O)([C@@H](OC(=O)c4ccccc4)[C@H]21)C3(C)C | 21 µM | > 25 µM | 16 µM | > 25 µM | 17 µM | > 25 µM | 25 µM | > 25 µM | > 25 µM |  | 
C=C1[C@@H](OC(=O)C[C@H](c2ccccc2)N(C)C)C[C@H](OC(C)=O)[C@]2(C)[C@@H]1C[C@@H]1C[C@H](OC(C)=O)C(C)=C([C@@H](OC(C)=O)[C@@H]2OC(C)=O)C1(C)C | 12 µM | > 25 µM | > 25 µM | 10 µM | 0.04 µM | > 25 µM | 14 µM | > 25 µM | 5.1 µM | > 25 µM | 15 µM
CC(=O)O[C@@]12CO[C@@H]1C[C@@H](O)[C@@]1(C)C(=O)[C@H](O)C3=C(C)[C@@H](OC(=O)[C@H](O)[C@@H](NC(=O)c4ccccc4)c4ccccc4)C[C@@](O)([C@@H](OC(=O)c4ccccc4)[C@H]21)C3(C)C | 0.011 µM | > 25 µM | 7.2 µM | 2.2 µM | 0.012 µM | 11 µM | 0.024 µM | 13 µM | 0.03 µM | 0.059 µM | 0.095 µM
C=C1[C@@H](OC(=O)/C=C/c2ccccc2)C[C@H](OC(C)=O)[C@]2(C)[C@@H]1C[C@@H]1C[C@H](OC(C)=O)C(C)=C([C@@H](OC(C)=O)[C@@H]2OC(C)=O)C1(C)C | 9.4 µM | > 25 µM | > 25 µM | 15 µM | > 25 µM | 12 µM | 7.1 µM | 11 µM | 9.7 µM | > 25 µM | > 25 µM
CC(=O)O[C@H]1C(=O)[C@@]2(C)[C@H]([C@H](OC(=O)c3ccccc3)[C@]3(O)C[C@H](O)C(C)=C1C3(C)C)[C@]1(OC(C)=O)CO[C@@H]1C[C@@H]2O [BACCATIN III] | > 25 µM | > 25 µM | > 25 µM | > 25 µM | 7.4 µM | > 25 µM | 24 µM | 12 µM | > 25 µM |  | 
C/C=C(\C)C(=O)N[C@@H](c1ccccc1)[C@@H](O)C(=O)O[C@H]1C[C@@]2(O)[C@@H](OC(=O)c3ccccc3)[C@@H]3[C@]4(OC(C)=O)CO[C@@H]4C[C@H](O)[C@@]3(C)C(=O)[C@H](OC(C)=O)C(=C1C)C2(C)C [CEPHALOMANNINE] | 0.008 µM | 7 µM | 4.9 µM | 0.6 µM | 0.004 µM | 7.2 µM | 0.005 µM | > 25 µM | 0.013 µM | 0.033 µM | 0.02 µM
CC(=O)O[C@H]1C(=O)[C@@]2(C)[C@H]([C@H](OC(=O)c3ccccc3)[C@]3(O)C[C@H](OC(=O)[C@H](O)[C@@H](NC(=O)c4ccccc4)c4ccccc4)C(C)=C1C3(C)C)[C@]1(OC(C)=O)CO[C@@H]1C[C@@H]2O [PACLITAXEL] |  | 6.2 µM | 4.4 µM | 0.58 µM |  |  |  | 0.066 µM |  | 0.021 µM | 0.009 µM
C=C1[C@@H](O)C[C@H](OC(C)=O)[C@@]2(COC(=O)c3ccccc3)[C@@H](OC(C)=O)[C@H](OC(C)=O)[C@@]3(O)[C@]4(C)OC[C@]3(C)C(CC4=O)[C@@H](OC(C)=O)[C@H]12 [TAXININE M] | 12 µM | > 25 µM | > 25 µM | > 25 µM | > 25 µM | > 25 µM | > 25 µM | > 25 µM | > 25 µM | 16 µM | > 25 µM
